Target: T1, human glucocorticoid receptor (GR) complex (Homo sapiens, UniProt P04150)
T1 construct: made in house; host or cells: insect expression system (baculovirus lysate)
T1 sequence (P04150 1-777): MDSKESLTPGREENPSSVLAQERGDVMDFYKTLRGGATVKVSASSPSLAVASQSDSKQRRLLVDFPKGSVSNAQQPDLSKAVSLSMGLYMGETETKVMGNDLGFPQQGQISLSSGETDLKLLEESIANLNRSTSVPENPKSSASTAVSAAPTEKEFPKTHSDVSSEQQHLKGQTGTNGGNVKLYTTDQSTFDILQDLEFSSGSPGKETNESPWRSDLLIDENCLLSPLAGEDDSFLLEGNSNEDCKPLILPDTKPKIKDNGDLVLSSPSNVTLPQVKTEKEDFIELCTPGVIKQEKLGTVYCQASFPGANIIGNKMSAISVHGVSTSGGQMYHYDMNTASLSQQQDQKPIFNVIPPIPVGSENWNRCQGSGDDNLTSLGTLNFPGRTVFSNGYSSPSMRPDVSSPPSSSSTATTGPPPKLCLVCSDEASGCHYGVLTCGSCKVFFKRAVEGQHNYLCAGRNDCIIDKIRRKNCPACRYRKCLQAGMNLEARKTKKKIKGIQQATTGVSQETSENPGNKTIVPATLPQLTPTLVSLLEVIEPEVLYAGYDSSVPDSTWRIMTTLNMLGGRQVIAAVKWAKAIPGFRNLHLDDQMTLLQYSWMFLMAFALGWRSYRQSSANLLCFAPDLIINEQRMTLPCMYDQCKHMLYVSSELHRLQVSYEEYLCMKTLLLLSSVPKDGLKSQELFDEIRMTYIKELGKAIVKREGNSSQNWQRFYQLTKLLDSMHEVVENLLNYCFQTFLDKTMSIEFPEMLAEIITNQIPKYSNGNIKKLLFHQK
Assay: Glucocorticoid receptor competitive binding assay (fluorescence polarization)
Conditions: competition with TAMRA-labeled dexamethasone
Experimental: Compounds of the invention were evaluated for binding to the steroid receptor by a fluorescence polarization competitive binding assay.
A. Glucocorticoid Receptor Competitive Binding Assay
Step 1. Characterization of the Fluorescent Probe
The wavelengths for maximum excitation and emission of the fluorescent probe should first be measured. An example of such a probe is rhodamine (TAMRA)-labeled dexamethasone.
The affinity of the probe for the steroid receptor was then determined in a titration experiment. The fluorescence polarization value of the probe in assay buffer was measured on an SLM-8100 fluorometer using the excitation and emission maximum values described above. Aliquots of expression vector lysate were added and fluorescence polarization was measured after each addition until no further change in polarization value was observed. Non-linear least squares regression analysis was used to calculate the dissociation constant of the probe from the polarization values obtained for lysate binding to the probe.
Step 2. Screening for Inhibitors of Probe Binding
This assay uses fluorescence polarization (FP) to quantitate the ability of test compounds to compete with tetramethyl rhodamine (TAMRA)-labeled dexamethasone for binding to a human glucocorticoid receptor (GR) complex prepared from an insect expression system. The assay buffer was: 10 mM TES, 50 mM KCl, 20 mM Na2MoO4.2H20, 1.5 mM EDTA, 0.04% w/v CHAPS, 10% v/v glycerol, 1 mM dithiothreitol, pH 7.4. Test compounds were dissolved to 1 mM in neat DMSO and then further diluted to 10× assay concentration in assay buffer supplemented with 10% v/v DMSO. Test compounds were serially diluted at 10× assay concentrations in 10% DMSO-containing buffer in 96-well polypropylene plates. Binding reaction mixtures were prepared in 96-well black Dynex microtiter plates by sequential addition of the following assay components to each well: 15 μL of 10× test compound solution, 85 μL of GR-containing baculovirus lysate diluted 1:170 in assay buffer, and 50 μL of 15 nM TAMRA-labeled dexamethasone. Positive controls were reaction mixtures containing no test compound; negative controls (blanks) were reaction mixtures containing 0.7 μM to 2 μM dexamethasone. […] IC50 values were determined by iterative non-linear curve fitting of the FP signal data to a 4-parameter logistic equation.

Activity in the GR binding assay, potent activity:
COc1ccc(C)cc1C(C)(C)CC(O)(Cn1ccc(=O)c2ccccc21)C(F)(F)F (stereo not shown) [1-[2-Hydroxy-4-(2-methoxy-5-methylphenyl)-4-methyl-2-trifluoromethylpentyl]-1H-quinolin-4-one]
COc1ccc(-c2ccccc2)cc1C(C)(C)CC(O)(Cn1ccc(=O)c2ccccc21)C(F)(F)F (stereo not shown) [1-[2-Hydroxy-4-(4-methoxybiphenyl-3-yl)-4-methyl-2-trifluoromethylpentyl]-1H-quinolin-4-one]
Cc1cn(CC(O)(CC(C)(C)c2cc(S(C)(=O)=O)cc3c2OCC3)C(F)(F)F)c2ccccc2c1=O (stereo not shown) [1-[2-Hydroxy-4-(5-methanesulfonyl-2,3-dihydrobenzofuran-7-yl)-4-methyl-2-trifluoromethylpentyl]-3-methyl-1H-quinolin-4-one]
CC(C)(CC(O)(Cn1ccc(=O)c2ncccc21)C(F)(F)F)c1cccc2c1OCC2 (stereo not shown)
COc1ccc(F)cc1C(C)(C)CC(O)(Cn1cc(CO)c(=O)c2ccccc21)C(F)(F)F (stereo not shown) [1-[4-(5-Fluoro-2-methoxyphenyl)-2-hydroxy-4-methyl-2-trifluoromethylpentyl]-3-hydroxymethyl-1H-quinolin-4-one]
COc1ccc(F)cc1C(C)(C)CC(O)(Cn1cc(C)c(=O)c(C)c1CO)C(F)(F)F (stereo not shown) [1-[4-(5-Fluoro-2-methoxyphenyl)-2-hydroxy-4-methyl-2-trifluoromethylpentyl]-2-hydroxymethyl-3,5-dimethyl-1H-pyridin-4-one]
COc1ccc(CN2CCOCC2)cc1C(C)(C)CC(O)(Cn1ccc(=O)c2ccccc21)C(F)(F)F (stereo not shown) [1-[2-Hydroxy-4-(2-methoxy-5-morpholin-4-ylmethylphenyl)-4-methyl-2-trifluoromethylpentyl]-1H-quinolin-4-one]
CC(=O)c1ccc(O)c(C(C)(C)CC(O)(Cn2ccc(=O)c3ccccc32)C(F)(F)F)c1 (stereo not shown)
CC(C)(CC(O)(Cn1ccc(=O)c2ccccc21)C(F)(F)F)c1cccc(F)c1 (stereo not shown) [1-[4-(3-Fluorophenyl)-2-hydroxy-4-methyl-2-trifluoromethylpentyl]-1H-quinolin-4-one]
CC(C)(CC(O)(Cn1ccc(=O)c2ccccc21)C(F)(F)F)c1cccc(C(=O)C2CC2)c1 (stereo not shown)
Cc1ccc(C(C)(C)CC(O)(Cn2ccc(=O)c3ccccc32)C(F)(F)F)cc1C (stereo not shown)
CC(C)(CC(O)(Cn1ccc(=O)c2ccccc21)C(F)(F)F)c1cccc(C=O)c1 (stereo not shown) [3-[4,4,4-Trifluoro-3-hydroxy-1,1-dimethyl-3-(4-oxo-4H-quinolin-1-ylmethyl)butyl]benzaldehyde]
CC(C)(CC(O)(Cn1ccc(=O)c2ccccc21)C(F)(F)F)c1ccccc1 (stereo not shown) [1-[4-Phenyl-2-hydroxy-4-methyl-2-trifluoromethylpentyl]-1H-quinolin-4-one]
CC(=O)c1cccc(C(C)(C)CC(O)(Cn2ccc(=O)c3ccccc32)C(F)(F)F)c1 (stereo not shown) [1-[4-(3-Acetylphenyl)-2-hydroxy-4-methyl-2-trifluoromethylpentyl]-1H-quinolin-4-one]
COc1ccc(F)cc1C(C)(C)CC(O)(CN1CCS(=O)(=O)c2ccccc21)C(F)(F)F (stereo not shown) [2-(1,1-Dioxo-2,3-dihydro-1H-1λ^6-benzo[1,4]thiazin-4-ylmethyl)-1,1,1-trifluoro-4-(5-fluoro-2-methoxyphenyl)-4-methylpentan-2-ol]
Cc1ccc(C(C)(C)CC(O)(Cn2ccc(=O)c3ccccc32)C(F)(F)F)c(C)c1 (stereo not shown)
COc1ccc(F)cc1C(C)(C)CC(O)(Cn1ccc(=O)c2cc(F)ccc21)C(F)(F)F (stereo not shown) [6-Fluoro-1-[4-(5-fluoro-2-methoxyphenyl)-2-hydroxy-4-methyl-2-trifluoromethylpentyl]-1H-quinolin-4-one]
Cc1cn(CC(O)(CC(C)(C)c2cccc3c2OCC3)C(F)(F)F)c2ccccc2c1=O (stereo not shown) [1-[4-(2,3-Dihydrobenzofuran-7-yl)-2-hydroxy-4-methyl-2-trifluoromethylpentyl]-3-methyl-1H-quinolin-4-one]
CC(C)(CC(O)(Cn1ccc(=O)c2ccccc21)C(F)(F)F)c1cc(CN2CCOCC2)ccc1O (stereo not shown) [1-[2-Hydroxy-4-(2-hydroxy-5-morpholin-4-ylmethylphenyl)-4-methyl-2-trifluoromethylpentyl]-1H-quinolin-4-one]
CC(C)(CC(O)(Cn1ccc(=O)c2cc(F)ccc21)C(F)(F)F)c1cc(F)ccc1O (stereo not shown) [6-Fluoro-1-[4-(5-fluoro-2-hydroxyphenyl)-2-hydroxy-4-methyl-2-trifluoromethylpentyl]-1H-quinolin-4-one]
C[S+]([O-])c1cc2c(c(C(C)(C)CC(O)(Cn3ccc(=O)c4ccccc43)C(F)(F)F)c1)OCC2 (stereo not shown) [1-[2-Hydroxy-4-(5-methanesulfinyl-2,3-dihydrobenzofuran-7-yl)-4-methyl-2-trifluoromethylpentyl]-1H-quinolin-4-one]
CC(C)(CC(O)(Cn1ccc(=O)c2ccccc21)C(F)(F)F)c1cc(-c2cccnc2)ccc1O (stereo not shown) [1-[2-Hydroxy-4-(2-hydroxy-5-pyridin-3-ylphenyl)-4-methyl-2-trifluoromethylpentyl]-1H-quinolin-4-one]
CC(C)(CC(O)(Cn1ccc(=O)c2ccccc21)C(F)(F)F)c1cc(-c2cncnc2)ccc1O (stereo not shown)
COc1ccc(F)cc1C(C)(C)CC(O)(CN1CCN(C(C)=O)c2ccccc21)C(F)(F)F (stereo not shown) [1-{4-[4-(5-Fluoro-2-methoxyphenyl)-2-hydroxy-4-methyl-2-trifluoromethylpentyl]-3,4-dihydro-2H-quinoxalin-1-yl}ethanone]
CC(C)(CC(O)(Cn1ccc(=O)c2ccc(Cl)cc21)C(F)(F)F)c1cc(F)ccc1O (stereo not shown) [7-Chloro-1-[4-(5-fluoro-2-hydroxyphenyl)-2-hydroxy-4-methyl-2-trifluoromethylpentyl]-1H-quinolin-4-one]
CC(C)(CC(O)(Cn1ccc(=O)c2ccc(O)cc21)C(F)(F)F)c1cc(F)ccc1O (stereo not shown)
C/C(=N/OCc1ccccc1)c1cccc(C(C)(C)CC(O)(Cn2ccc(=O)c3ccccc32)C(F)(F)F)c1 (stereo not shown) [1-(4-{3-[1-(Benzyloxyimino)ethyl]phenyl}-2-hydroxy-4-methyl-2-trifluoromethylpentyl)-1H-quinolin-4-one]
Cc1cc2c(c(C(C)(C)CC(O)(Cn3ccc(=O)c4ccccc43)C(F)(F)F)c1)OCC2 (stereo not shown) [1-[4-(5-Methyl-2,3-dihydrobenzofuran-7-yl)-2-hydroxy-4-methyl-2-trifluoromethylpentyl]-1H-quinolin-4-one]
